Reference: ChEMBL document CHEMBL1141962, “Angiogenesis inhibitors derived from thalidomide” (2005)

Columns and labels:
Format in all cases: functional
Details in all cases: Homo sapiens
HUVEC [1] = assay: Inhibitory activity in HUVEC tube formation assay at 10 uM
HUVEC [2] = assay: Inhibitory activity in HUVEC tube formation assay at 100 uM
HUVEC [3] = assay: Inhibitory activity in HUVEC tube formation assay at 30 uM

Row | SMILES | inhibition at 10 µM (HUVEC [1]) | inhibition at 100 µM (HUVEC [2]) | inhibition at 30 µM (HUVEC [3])
1 | CC(C)c1cccc(C(C)C)c1N1C(=O)c2ccc(O)cc2C1=O | 8% | 59% | 41%
2 | O=C1CCC(N2C(=O)c3cccc([N+](=O)[O-])c3C2=O)C(=O)N1 (configuration not stated) | – | 32% | –
3 | Nc1cccc2c1CN(C1CCC(=O)NC1=O)C2=O (configuration not stated) [LENALIDOMIDE] | – | 32% | –
4 | Nc1cccc2c1C(=O)N(C1CCC(=O)NC1=O)C2=O (configuration not stated) [POMALIDOMIDE] | – | 21% | –
5 | O=C1CCC(N2C(=O)c3ccccc3C2=O)C(=O)N1 (configuration not stated) [THALIDOMIDE] | – | 26% | –
